Target: T1, HbS (Homo sapiens, UniProt P68871+P69905, E7V)
T1 construct: Oxygen Equilibrium Curves (OEC) of whole blood before and after treatment; endogenous in cells; host or cells: whole blood (red blood cells) of homozygous sickle cell patients
Assay: Whole blood assay, oxygen equilibrium curves of whole blood from sickle cell patients
Format: cell-based
Conditions: hematocrit 20%, compound at 1000 μM
Method: Oxygen Equilibrium Curves (OEC) of whole blood before and after treatment with different concentrations of substituted benzaldehyde compounds were performed as follows using a HEMOX analyzer (TCS Scientific, New Hope, Pa.). Blood samples from homozygous sickle cell patients were obtained though the Hemoglobinopathy Center at Children's Hospital Oakland Research Institute (CHORI) with Institutional Review Board approval. The hematocrit was adjusted to 20% using autologous plasma and the blood samples were incubated for 1 hour at 37° C. in absence or presence of compounds. 100 μl of these samples were added to 5 mL of Hemox buffer (30 mM TES, 130 mM NaCl, 5 mM KCl, pH=7.4) at 37° C. and then transferred to the Hemox sample chamber. The samples were saturated with oxygen by flushing with compressed air for 10 minutes. The samples were then flushed with pure nitrogen and the respective absorbances of oxy- and deoxy-Hb are recorded as a function of the solution pO2. The oxygen equilibrium data were then fitted to the Hill Model to obtain values for p50. The deoxygenation curves for both whole blood alone (control) and whole blood in the presence of the compound were collected with the TCS software.
Table 5 below lists the delta p50% values where + indicates a delta p50% of between 0 and 29, ++ indicates a delta p50% of between 30 and 50, and +++ indicates a delta p50% of 50 or greater. The compounds in Table 2 were tested at 1000 μM.

In the case of `CC(C)n1nccc1-c1ncccc1COc1cccc(O)c1C=O` [Compound 43, 2-hydroxy-6-((2-(1-isopropyl-1H-pyrazol-5-yl)pyridin-3-yl)methoxy)benzaldehyde], the “delta p50%” value is reported as “+++ (+++ indicates a delta p50% of 50 or greater)”.
